In patent publication US20050112555A1, “Cytidine deaminase activators, deoxycytidine deaminase activators, Vif antagonists, and methods of screening for molecules thereof” (priority 2003, published 2005):

Tested on: intracellular CEM15
Assay: Western blot of CEM15 abundance after co-expression of CEM15 and Vif in 293T cells
Format: cell-based, human
Settings: within 36-48 h post-transfection
Excerpt: CEM15 abundance can be quantified by western blotting as described above. Small molecules that bind to any of the aforementioned peptides can be evaluated for their ability to protect or restore CEM15 abundance using the aforementioned western blotting systems of whole cell extracts of cells that have been transfected with CEM15 and Vif wherein these proteins are co-expressed in 293T cells (conditions that result in CEM15 destruction) and evaluated (by western blotting of cell extracts) for the ability of VDA peptides of varying size and sequence to restore CEM15 abundance. Co-expression of CEM15 and Vif by transfection in 293T cells results ˜99% ablation of intracellular CEM15 within 36-48 h post-transfection. […] All peptides are tested according to this schedule. Expression of CEM15 and Vif are driven from the CMV promoter of pcDNA3 plasmids.

Vif: HIV-1 viral infectivity factor, SEQ ID NO: 7; induces degradation of CEM15
ablation of intracellular CEM15: ~99%
